From patent US10556902B2 (Asceneuron SA, priority 2016, dated 2020)

Target: His-Tagged hOGA (human O-GlcNAcase) (Homo sapiens (Human), UniProt O60502)
Test: Human O-GlcNAcase enzyme inhibition assay;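 note: reactions contained 20 nM His-tagged hOGA enzyme with 10 µM FL-GlcNAc substrate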
Assay type: biochemical
Conditions: OGA enzyme inhibition assay; FL-GlcNAc substrate, pH 6.5; activity classes defined in μM; read-out: OGA IC50
Method: Then, 20 nM of His-Tagged hOGA and 10 μM of FL-GlcNAc (Fluorescein mono-beta-D-(2-deoxy-2-N-acetyl) glucopyranoside; Marker Gene Technologies Inc, M1485) were added to the 384-well plate for a final volume of 20 μl.

Chain of His-Tagged hOGA (human O-GlcNAcase) (O60502 whole entry): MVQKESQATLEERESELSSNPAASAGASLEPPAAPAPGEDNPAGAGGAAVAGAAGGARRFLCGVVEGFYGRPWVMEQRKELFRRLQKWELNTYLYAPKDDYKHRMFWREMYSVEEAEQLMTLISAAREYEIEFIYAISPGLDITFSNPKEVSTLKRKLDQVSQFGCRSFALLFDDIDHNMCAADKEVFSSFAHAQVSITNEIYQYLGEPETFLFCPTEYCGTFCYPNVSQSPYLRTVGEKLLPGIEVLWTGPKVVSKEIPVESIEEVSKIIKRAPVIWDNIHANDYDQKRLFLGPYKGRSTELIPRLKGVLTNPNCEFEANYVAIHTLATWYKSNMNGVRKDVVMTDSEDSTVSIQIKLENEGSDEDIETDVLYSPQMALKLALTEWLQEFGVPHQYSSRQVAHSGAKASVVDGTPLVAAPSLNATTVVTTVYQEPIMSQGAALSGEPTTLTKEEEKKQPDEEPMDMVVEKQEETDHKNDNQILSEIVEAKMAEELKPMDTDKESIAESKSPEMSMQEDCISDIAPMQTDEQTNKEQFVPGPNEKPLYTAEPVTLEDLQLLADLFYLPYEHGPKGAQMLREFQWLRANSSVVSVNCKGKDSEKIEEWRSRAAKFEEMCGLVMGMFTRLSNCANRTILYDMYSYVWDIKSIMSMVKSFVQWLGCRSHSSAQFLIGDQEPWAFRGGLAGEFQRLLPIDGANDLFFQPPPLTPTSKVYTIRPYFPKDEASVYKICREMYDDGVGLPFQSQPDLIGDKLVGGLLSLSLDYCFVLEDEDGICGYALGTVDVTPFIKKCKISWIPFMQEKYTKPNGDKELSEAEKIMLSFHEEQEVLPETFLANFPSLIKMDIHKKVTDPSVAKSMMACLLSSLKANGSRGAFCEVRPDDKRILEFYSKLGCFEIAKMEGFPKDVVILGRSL

SMILES	IC50
CC(c1ccc2nccnc2c1)N1CCN(c2ccc(C3(O)CCOCC3)cn2)CC1 (racemic) [Example 57, 4-(6-(4-(1-(quinoxalin-6-yl)ethyl)piperazin-1-yl)pyridin-3-yl)tetrahydro-2H-pyran-4-ol]	0.05 to 0.2 µM
CC(c1ccc2c(c1)OCC2)N1CCC(n2cc(C(F)(F)F)cn2)CC1 (racemic) [Example 29, 1-(1-(2,3-Dihydrobenzofuran-6-yl)ethyl)-4-(4-(trifluoromethyl)-1H-pyrazol-1-yl) piperidine]	0.2 to 1 µM
CNC(=O)c1ccc(N2CCN(C(C)c3ccc4c(c3)OCC4)CC2)nc1 (racemic) [Example 64, 6-(4-(1-(2,3-dihydrobenzofuran-6-yl)ethyl)piperazin-1-yl)-N-methylnicotinamide]	< 0.05 µM
CC(=O)N1CCc2nc(N3CCN(C(C)c4ccc5nccnc5c4)CC3)sc2C1 (racemic) [Example 11, 1-(2-(4-(1-(quinoxalin-6-yl)ethyl)piperazin-1-yl)-6,7-dihydrothiazolo[5,4-c]pyridin-5(4H)-yl)ethan-1-one]	0.05 to 0.2 µM
CC(c1ccc2c(c1)OCC2)N1CCN(c2nc3c(s2)CNCC3)CC1 (single isomer, unassigned) [Example 17]	< 0.05 µM
CC(O)c1ccc(N2CCN(C(C)c3ccc4c(c3)OCC4)CC2)nn1 (racemic) [Example 35, 1-(6-(4-(1-(2,3-dihydrobenzofuran-6-yl)ethyl)piperazin-1-yl)pyridazin-3-yl)ethan-1-ol]	< 0.05 µM
CC(O)c1cnc(N2CCN(C(C)c3ccc4nccnc4c3)CC2)nc1 (racemic) [Example 84, 1-(2-(4-(1-(quinoxalin-6-yl)ethyl)piperazin-1-yl)pyrimidin-5-yl) ethan-1-ol]	0.05 to 0.2 µM
CC(c1ccn2ccnc2c1)N1CCN(c2ncc(C(F)(F)F)cn2)CC1 (racemic) [Example 91, 7-(1-(4-(5-(trifluoromethyl)pyrimidin-2-yl)piperazin-1-yl)ethyl)imidazo[1,2-a]pyridine]	1 to 10 µM
CC(c1ccc2c(c1)OCC2)N1CCN(c2nnc(CO)s2)CC1 (racemic) [Example 113, (5-(4-(1-(2,3-dihydrobenzofuran-6-yl)ethyl)piperazin-1-yl)-1,3,4-thiadiazol-2-yl)methanol]	< 0.05 µM
CC(O)c1ccc(N2CCN(C(C)c3ccc4nccnc4c3)CC2)nn1 (racemic) [Example 36, 1-(6-(4-(1-(quinoxalin-6-yl)ethyl)piperazin-1-yl)pyridazin-3-yl)ethan-1-ol]	0.2 to 1 µM
Cc1nnc(C2CCN(C(C)c3ccc4c(c3)OCC4)CC2)o1 (racemic) [Example 23, 2-(1-(1-(2,3-dihydrobenzofuran-6-yl)ethyl)piperidin-4-yl)-5-methyl-1,3,4-oxadiazole]	< 0.05 µM
CC(c1ccc2c(c1)OCC2)N1CCN(c2nc3c(s2)C(=O)N(C)CC3)CC1 (racemic) [Example 13, 2-(4-(1-(2,3-dihydrobenzofuran-6-yl)ethyl)piperazin-1-yl)-5-methyl-6,7-dihydrothiazolo[5,4-c]pyridin-4(5H)-one]	< 0.05 µM
CC(=O)NC(C)(C)c1cnc(N2CCN(C(C)c3ccc4nccnc4c3)CC2)nc1 (racemic) [Example 107, N-(2-(2-(4-(1-(quinoxalin-6-yl)ethyl)piperazin-1-yl)pyrimidin-5-yl)propan-2-yl)acetamide]	0.2 to 1 µM
CC(c1ccc2c(c1)OCC2)N1CCN(c2ccc(S(C)(=O)=O)nn2)CC1 (racemic) [Example 45, 3-(4-(1-(2,3-dihydrobenzofuran-6-yl)ethyl)piperazin-1-yl)-6-(methylsulfonyl)pyridazine]	< 0.05 µM
CC(c1ccc2c(c1)OCC2)N1CCN(c2nnc(CN(C)C)s2)CC1 (racemic) [Example 123, 1-(5-(4-(1-(2,3-dihydrobenzofuran-6-yl)ethyl)piperazin-1-yl)-1,3,4-thiadiazol-2-yl)-N,N-dimethylmethanamine]	< 0.05 µM
CC(c1ccc2c(c1)OCC2)N1CCN(c2ncc(C3(O)CCCCC3)cn2)CC1 (racemic) [Example 80, 1-(2-(4-(1-(2,3-dihydrobenzofuran-6-yl)ethyl)piperazin-1-yl)pyrimidin-5-yl)cyclohexan-1-ol]	< 0.05 µM
CC(c1ccc2c(c1)OCC2)N1CCN(c2nccc(C(=O)N(C)C)n2)CC1 (racemic) [Example 101, 2-(4-(1-(2,3-dihydrobenzofuran-6-yl)ethyl)piperazin-1-yl)-N,N-dimethylpyrimidine-4-carboxamide]	< 0.05 µM
CC(c1ccc2c(c1)OCC2)N1CCN(c2ncc(C3(O)CCOCC3)cn2)CC1 (racemic) [Example 81, 4-(2-(4-(1-(2,3-dihydrobenzofuran-6-yl)ethyl)piperazin-1-yl)pyrimidin-5-yl)tetrahydro-2H-pyran-4-ol]	< 0.05 µM
Cc1nnc(C2CCN(C(C)c3ccc4nccnc4c3)CC2)o1 (racemic) [Example 24, 2-methyl-5-(1-(1-(quinoxalin-6-yl)ethyl)piperidin-4-yl)-1,3,4-oxadiazole]	0.2 to 1 µM
CC(=O)N1CCc2nc(N3CCN(C(C)c4ccc5c(c4)OCC5)CC3)sc2C1 (racemic) [Example 10, 1-(2-(4-(1-(2,3-dihydrobenzofuran-6-yl)ethyl)piperazin-1-yl)-6,7-dihydrothiazolo[5,4-c]pyridin-5(4H)-yl)ethan-1-one]	< 0.05 µM
CC(c1ccc2nccnc2c1)N1CCN(c2nnc(C(=O)N(C)C)s2)CC1 (racemic) [Example 122, N,N-dimethyl-5-(4-(1-(quinoxalin-6-yl)ethyl)piperazin-1-yl)-1,3,4-thiadiazole-2 carboxamide]	0.2 to 1 µM
CC(c1cnc2cccnc2c1)N1CCN(c2ncc(C(F)(F)F)cn2)CC1 (racemic) [Example 93, 3-(1-(4-(5-(trifluoromethyl)pyrimidin-2-yl)piperazin-1-yl)ethyl)-1,5-naphthyridine]	0.2 to 1 µM
CC(=O)Nc1nnc(N2CCN(C(C)c3ccc4c(c3)OCC4)CC2)s1 (single isomer, unassigned) [Example 109]	< 0.05 µM
CCOC(=O)c1cnn(C2CCN(C(C)c3ccc4c(c3)OCC4)CC2)c1 (racemic) [Example 32, Ethyl 1-(1-(1-(2,3-dihydrobenzofuran-6-yl)ethyl)piperidin-4-yl)-1H-pyrazole-4-carboxylate]	0.05 to 0.2 µM
CC(c1ccc2nccnc2c1)N1CCN(c2ncc(C(=O)O)cn2)CC1 (racemic) [Example 106, 2-(4-(1-(quinoxalin-6-yl)ethyl)piperazin-1-yl)pyrimidine-5-carboxylic acid]	0.05 to 0.2 µM
COC(=O)c1ccnc(N2CCN(C(C)c3ccc4c(c3)OCC4)CC2)n1 (racemic) [Example 102, Methyl 2-(4-(1-(2,3-dihydrobenzofuran-6-yl)ethyl)piperazin-1-yl)pyrimidine-4-carboxylate]	< 0.05 µM

The next lines start with the values.

IC50	SMILES
< 0.05 µM	COC(=O)c1cnc(N2CCN(C(C)c3ccc4c(c3)OCC4)CC2)nc1 (racemic) [Example 98, Methyl 2-(4-(1-(2,3-dihydrobenzofuran-6-yl)ethyl)piperazin-1-yl)pyrimidine-5-carboxylate]
< 0.05 µM	CC(c1ccc2nccnc2c1)N1CCN(c2ncc3c(n2)CCN(C)C3)CC1 (racemic) [Example 9, 6-methyl-2-(4-(1-(quinoxalin-6-yl)ethyl)piperazin-1-yl)-5,6,7,8-tetrahydropyrido[4,3-d]pyrimidine]
< 0.05 µM	CC(C)C(O)c1cnc(N2CCN(C(C)c3ccc4c(c3)OCC4)CC2)nc1 (racemic) [Example 78, 1-(2-(4-(1-(2,3-dihydrobenzofuran-6-yl)ethyl)piperazin-1-yl)pyrimidin-5-yl)-2-methylpropan-1-ol]
0.05 to 0.2 µM	CC(=O)N1CCc2nc(N3CCN(C(C)c4ccc5nccnc5c4)CC3)ncc2C1 (racemic) [Example 6, 1-(2-(4-(1-(quinoxalin-6-yl)ethyl)piperazin-1-yl)-7,8-dihydropyrido[4,3-d]pyrimidin-6(5H)-yl)ethan-1-one]
0.05 to 0.2 µM	COC(=O)c1cnc(N2CCN(C(C)c3ccc4nccnc4c3)CC2)nc1 (racemic) [Example 105, Methyl 2-(4-(1-(quinoxalin-6-yl)ethyl)piperazin-1-yl)pyrimidine-5-carboxylate]
0.05 to 0.2 µM	CC(c1ccc2nccnc2c1)N1CCN(c2ncc(C3(O)CCOCC3)cn2)CC1 (racemic) [Example 89, 4-(2-(4-(1-(quinoxalin-6-yl)ethyl)piperazin-1-yl)pyrimidin-5-yl)tetrahydro-2H-pyran-4-ol]
< 0.05 µM	CC(c1ccc2cccnc2n1)N1CCN(c2ncc(C(O)C(F)(F)F)cn2)CC1 (racemic) [Example 83, 1-(2-(4-(1-(1,8-naphthyridin-2-yl)ethyl)piperazin-1-yl)pyrimidin-5-yl)-2,2,2-trifluoroethan-1-ol]
0.2 to 1 µM	COC(=O)c1cccc(N2CCN(C(C)c3ccc4nccnc4c3)CC2)n1 (racemic) [Example 70, Methyl 6-(4-(1-(quinoxalin-6-yl)ethyl)piperazin-1-yl)picolinate]
< 0.05 µM	CNC(=O)c1cnc(N2CCN(C(C)c3ccc4c(c3)OCC4)CC2)nc1 (racemic) [Example 99, 2-(4-(1-(2,3-dihydrobenzofuran-6-yl)ethyl)piperazin-1-yl)-N-methylpyrimidine-5-carboxamide]
0.05 to 0.2 µM	CC(c1ccc2nccnc2c1)N1CCN(c2ccc(S(C)(=O)=O)cn2)CC1 (racemic) [Example 72, 6-(1-(4-(5-(methylsulfonyl)pyridin-2-yl)piperazin-1-yl)ethyl)quinoxaline]
0.05 to 0.2 µM	CC(c1ccc2nccnc2c1)N1CCN(c2ccc(C3(O)CCCC3)cn2)CC1 (racemic) [Example 61, 1-(6-(4-(1-(quinoxalin-6-yl)ethyl)piperazin-1-yl)pyridin-3-yl)cyclopentan-1-ol]
0.2 to 1 µM	COc1ccc(N2CCN(C(C)c3ccc4nccnc4c3)CC2)cn1 (racemic) [Example 53, 6-(1-(4-(6-methoxypyridin-3-yl)piperazin-1-yl)ethyl)quinoxaline]
< 0.05 µM	CC(c1ccc2c(c1)OCC2)N1CCN(c2ncc(CO)cn2)CC1 (racemic) [Example 75, (2-(4-(1-(2,3-Dihydrobenzofuran-6-yl)ethyl)piperazin-1-yl)pyrimidin-5-yl) methanol]
